The source of these data is patent US10617735B2, “Methods and compositions for preserving retinal ganglion cells” (Massachusetts Eye and Ear Infirmary, priority 2010, dated 2020).

The subject of data set [1] is Apoptosis inducing factor (AIF). Nature of the data set: AIF immunostaining with TUNEL after ON injury (nuclear translocation). Format: in vivo, mouse. To be noted: one day after ON injury. The protocol:
Apoptosis inducing factor (AIF) is a mitochondrial flavoprotein which is involved in initiating caspase-independent apoptosis. After loss of mitochondrial membrane potential, AIF translocates into the nucleus, induces DNA fragmentation and peripheral chromatin condensation (Susin et al., (1999), Susin et al., (2000), Candé et al., (2004)). To analyze whether mitochondrial release of AIF is associated with RGC death after ON injury, immunostaining for AIF was performed together with TUNEL assay. One day after ON injury, there was a prominent nuclear translocation of AIF, which was not affected by pan-caspase inhibition (FIGS. 7A and 7B).

For data set [2] the following is noted: studies on which the dose was selected; cited from earlier work.
The subject of data set [3] is retinal ganglion cells (RGCs). Nature of the data set: NMDA retinal excitotoxicity model: TUNEL staining. Format: in vivo, mouse. To be noted: NMDA injected intravitreously in combination with the compounds. An excerpt: (§1) Two mouse models of RGC death were utilized: optic nerve (ON) injury and N-methyl-D-aspartate (NMDA) retinal excitotoxicity. ON injury leads to RGC death as a result of primary damage to the axons, with its ensuing disruption of retrograde axonal transport (Libby et al., (2005) PLOS GENET 1:17-26) and is used as an RGC death model. In the ON injury model, mice were anesthetized and subjected to severe crush injury at 1-2 mm distance from the eyeball for 15 seconds using cross-action forceps taking special care not to interfere with the blood supply (Levkovitch-Verbin, (2004) EYE 18:1066-1074). Injured mice were randomly divided into 4 groups for treatment: vehicle group (0.5% DMSO and 0.8% cyclodextrin in PBS, n=6), ZVAD group (300 n=6), Nec-1 group (4 mM, n=6), and ZVAD plus Nec-1 group (n=6). Soon after injury, each group received an intravitreal injection (2 μl) with the respective compounds. In the NMDA retinal excitotoxicity model, NMDA (2 μl of a 0.1M stock; Sigma-Aldrich) was injected intravitreously in combination with ZVAD, Nec-1, or ZVAD plus Nec-1 and mice were separated into the aforementioned 4 groups. […]

The test system of data set [4] is retinal ganglion cells (RGCs). Kind of data set: NMDA retinal excitotoxicity model: Brn3b positive cells. Format: in vivo, mouse. To be noted: NMDA injected intravitreously in combination with the compounds.
Source text: as §1

Data set [5] relates to retinal ganglion cells (RGCs). Kind of data set: Brn3b immunohistochemistry (viable RGCs) after ON injury. Format: in vivo, mouse. The note with it: RIP3−/− mice; seven days after ON injury.
Source text: as §1

Data set [6] relates to retinal ganglion cells (RGCs). Kind of data set: Propidium iodide (PI) staining of necrotic cells in GCL after ON injury. Format: in vivo, mouse. The note with it: one day after ON injury, wild-type mice. An excerpt:
To investigate further the underlying mechanism of why Z-VAD fails to prevent RGC death after ON injury, propidium iodide (PI) was used to detect necrotic cells in GCL (Unal Cevik et al., (2010)). At one day after ON injury, Z-VAD administration increased the number of PI positive cells compared with vehicle (FIGS. 4A and 4B).

Molecules are shown by their SMILES. Where a SMILES comes first, the peptide text is derived from it. The star is where a group is joined. Cbz = O=C(OCc1ccccc1)*; CH2F = FC*

As for `COC(=O)CC(NC(=O)C(C)NC(=O)C(NC(=O)OCc1ccccc1)C(C)C)C(=O)CF` (stereo not drawn) [Z-VAD, Benzyloxycarbonyl-Val-Ala-Asp(OMe)-fluoromethylketone] (Cbz-Val-Ala-Asp(OMe)-CH2F; configuration not given here), in data set [1], the “nuclear translocation of AIF” value is “not affected”. Besides, the “half-life inside the eye” value in data set [2] is reported as “around 6 hours”. Moreover, the “number of TUNEL positive cells” value in data set [3] is “decreased the number of TUNEL positive cells”. Also, in data set [4], the “reduction of Brn3b positive cells” value is given as “prevented the reduction of Brn3b positive cells”. For the same compound, the “number of Brn3b positive cells” value in data set [5] was “further enhanced”. Further, the “number of PI positive cells” value in data set [6] was “increased”.
